The values that follow come from PMC5618426, “APETx4, a Novel Sea Anemone Toxin and a Modulator of the Cancer-Relevant Potassium Channel KV10.1” (Marine Drugs, 2017).

Holding throughout (assay type): cell-based, human
In series [1] the test system is hTERT RPE-1. The source says:
(§1) The proapoptotic activity of APETx4 was visualized and quantified by the addition of the IncuCyte Caspase-3/7 Reagent. This reagent is an inert and non-fluorescent substrate, which is cleaved by activated caspase-3/7 during early apoptosis. The cleavage of the reagent releases a DNA-binding green fluorescent dye. […] In Figure 7 an overview is given for the caspase assays of all the tested cell lines.
(§2) Figure 7 Investigation of the proapoptotic effect of APETx4 on various cell lines using a Caspase-3/7 Reagent. The amount of cells in early apoptosis was plotted as Green Object Count (1/mm²) versus time (hours). The data points represented as red triangles were obtained from apoptosis experiments with cells incubated without APETx4, the green squares represent experiments with 20 µM APETx4 and the blue circles were obtained from experiments with 50 µM APETx4.
(§3) Cell lines SH-SY5Y (ACC 209), LNCaP (ACC 256) and NIH-3T3 (ACC 59) were purchased from DSMZ (Germany). MDA-MB-435S (HTB 129) and hTERT RPE-1 (CRL 4000) were obtained from ATCC (USA). Cell lines were cultured in their recommended media supplemented with 10% or 15% FCS (PAA laboratories, Cölbe, Germany) at 37 °C in humidified 5% CO2 atmosphere. All media were purchased from ThermoFisher Scientific (Waltham, MA, USA).
(§4) Cell proliferation, cytotoxicity and apoptosis were assessed in a 96-well microtiter plate by live-cell imaging using an IncuCyte Zoom System (Essen BioScience, Welwyn Garden City, UK). Cell proliferation was monitored in terms of cell confluency (%). Cell cytotoxicity was assessed by the CellTox Green Dye assay (Promega, Madison, WI, USA). The IncuCyte Caspase-3/7 apoptosis assay (Essen BioScience, UK) was used to evaluate the effect of APETx4 on the apoptotic pathway.
(§5) Live-cell imaging data were collected from the IncuCyte Zoom software and analyzed using GraphPad Prism 6 software. Proliferation was measured as Phase Object Confluence (%), cytotoxicity and apoptosis were measured as Green Object Count (1/mm²). Data points were collected every hour. In order to improve the clarity of the graphs, only the data points for every 5 h are shown. All data are represented as mean ± S.E.M of n = 4 different wells.

In series [2] the test system is SH-SY5Y.
Description: as §1, §2, §3, §4, §5

Series [3] deals with MDA-MB-435S.
Description: as §1, §2, §3, §4, §5

Series [4] has as its system LNCaP.
Description: as §1, §2, §3, §4, §5

The subject of series [5] is hTERT RPE-1. Put plainly: proliferation (IncuCyte confluency). To be noted: cell confluency (%) over time, n = 4 wells. The procedure: (§6) The cell proliferation was quantified in terms of cell confluency (%) over time; data points were collected every hour. […] LNCaP, it is presumed that the observed effect cannot only be attributed to KV10.1 inhibition (Figure S5).
as §3, §4, §5

In series [6] the test system is SH-SY5Y. Put plainly: proliferation (IncuCyte confluency). To be noted: cell confluency (%) over time, n = 4 wells. The procedure: as §6, §3, §4, §5
In series [7] the test system is MDA-MB-435S. Put plainly: proliferation (IncuCyte confluency). To be noted: cell confluency (%) over time, n = 4 wells. Here is the method: as §6, §3, §4, §5
The subject of series [8] is LNCaP. Briefly: proliferation (IncuCyte confluency). To be noted: cell confluency (%) over time, n = 4 wells. Here is the method:
as §6, §3, §4, §5

Where [9] appears, read: 50 µM APETx4, immediately after toxin addition.
The mark [10] stands for this setting: 50 µM APETx4, 0 h, 24 h and 48 h.
The mark [11] stands for this setting: green object count (1/mm²) versus incubation time.

Positions of bridges follow the written chain, without caps; N, C: chain ends. No end group written: not given here.

In the case of “GTTCYCGKTIGIYWFGKYSCPTNRGYTGSCPYFLGICCYPVD (disulfide 4-37, 6-30, 20-38) [APETx4]”, the “viability in cell images” value is given as “became less viable” in the series on hTERT RPE-1 [1] (setting [9]), “immediate effects were not clearly observed” in the series with SH-SY5Y [2] (setting [10]), “immediate effects were not clearly observed” in the series with MDA-MB-435S [3] (setting [10]) and “became less viable” in the series on LNCaP [4] (setting [9]). The “response time in caspase assay” value in the series with hTERT RPE-1 [1] (very rapid response) and in the series on LNCaP [4] (very rapid response) was less than 60 min in each case. Also, the “time course of green fluorescent cells (early apoptosis)” value in the series on SH-SY5Y [2] (setting [11]) and with MDA-MB-435S [3] (setting [11]) was “gradual increase in green fluorescent cells” each time. In addition, the antiproliferative effect entry in the series on hTERT RPE-1 [5], with SH-SY5Y [6], with MDA-MB-435S [7] and in the series on LNCaP [8] was “concentration-dependent antiproliferative effect” in each case.
